# How the values were obtained:
# [1] = tested on: murine colorectal cancer C38; assay: tumour growth in mice with colorectal cancer C38 treated with 5-fluorouracil (1a); format: in vivo, Mice of C57BL/6 strain; details: for TGI / Tumours MEAN ± SD: C38, 28 day of experiment; for Tumours MEAN ± SD: 5-FU 150 mg/kg i.p., PRI-2191 2 ug/kg s.c., PRI-2205 10 μg/kg s.c.; for volume of tumours C38 in comparison with control: single agent; for volume of tumours C38, combination with 5-FU in comparison with 5-FU: analogue combined with 5-FU
# [2] = tested on: murine colorectal cancer C38; assay: survival time and tumour growth in mice with colorectal cancer C38 treated with 5-FU (1b); format: in vivo; details: for ILS %: 5-FU 75 mg/kg i.p. day 1, PRI-2191 2, PRI-2205 10 μg/kg/day 3 times per week; for TGI (d20) %: day 20; for C38 tumour mass in comparison with control: single agent; for C38 tumour mass, combination with 5-FU in comparison with 5-FU: analogue combined with 5-FU
# Experimental: Mice with colorectal cancer C38 were treated with 5-FU given in a single administration, intraperitoneally on day 1 at a dose of 75 mg/kg.
# [3] = tested on: colorectal cancer HT-29; assay: tumour growth in mice with colorectal cancer HT-29 treated with 5-fluorouracil; format: in vivo; details: for TGI / Tumours MEAN ± SD: HT-29, 49 day of experiment; for HT-29 tumour mass in comparison with control: single agent; for HT-29 tumour mass, combination with 5-FU in comparison with 5-FU alone / type of interaction in inhibition of HT-29 tumour growth: analogue combined with 5-FU
# [4] = tested on: HT-29; assay: antiproliferative activity of 5-fluorouracil combined with vitamin D analogues in vitro, 120 h; format: cell-based, human; set-up: key: +: sub-additive effect; ++: additive effect; +++: synergistic effect; −: antagonism; details: analogue 100 nM + 5-fluorouracil 0.1 μg/ml, 120-hours exposure
# Experimental: (§1) After 24 h culture, the cells of large intestine carcinoma were treated simultaneously with calcitriol or vitamin D analogues and 5-fluorouracil for 120 hours. The final concentration of vitamin D analogues was 100 nM, and of 5-fluorouracil—-1 μg/ml or 0.1 μg/ml. Statistical analysis of the obtained results of inhibition of proliferation was carried out by analysis of percent of inhibition of proliferation in individual combinations of compounds.
# (§2) Hypothetical value was calculated according to a formula: […]
# (§3) wherein: % H—hypothetical inhibition of proliferation by combination of compounds [Vo]; % cyt—inhibition of proliferation by 5-Fu alone [%]; % vit—inhibition of proliferation by calcitriol or cholecalciferol analogue alone [%];
# (§4) Additive effect occurs when the experimental and hypothetical value are similar, sub-additive effect occurs when experimental value is lower than hypothetical value but above value for a cytostatic alone, and antagonistic action—when a value determined for a cytostatic used alone is above experimental value for combination of both compounds. [Peters G. J. i wsp.: Pharmacol Ther 2000, 87, 227-253]
# [5] = tested on: LoVo; assay: as above; format: cell-based, human; set-up: key: +: sub-additive effect; ++: additive effect; +++: synergistic effect; −: antagonism; details: analogue 100 nM + 5-fluorouracil 1 μg/ml, 120-hours exposure
# Experimental: as §1, §2, §3, §4
# [6] = tested on: MC38/0; assay: as above; format: cell-based, mouse; set-up: key: +: sub-additive effect; ++: additive effect; +++: synergistic effect; −: antagonism; details: 120-hours exposure
# Experimental: as §1, with “The final concentration of vitamin D analogues was 100 nM, and of 5-fluorouracil—-1 μg/ml or 0.1 μg/ml.” left out
# as §2, §3, §4
# [7] = tested on: CaCo-2; assay: as above; format: cell-based, human; set-up: key to Type of reaction between vitamin D analogues and 5-fluorouracil: +: sub-additive effect; ++: additive effect; +++: synergistic effect; −: antagonism; details: for Type of reaction between vitamin D analogues and 5-fluorouracil: CaCo-2, analogue 100 nM + 5-fluorouracil 1 μg/ml, 120-hours exposure
# Experimental: as §1, §2, §3, §4
# [8] = tested on: murine colorectal carcinoma C38; assay: tumour growth in mice with murine colorectal carcinoma C38 treated with capecitabine; format: in vivo, Mice of C57BL/6 strain; details: for TGI / Tumours MEAN ± SD: C38; for tumour C38 mass in comparison with control: single agent; for tumour mass, combination with capecitabine in comparison with capecitabine alone / type of interaction in inhibition of tumour growth with capecitabine: analogue combined with capecitabine
# [9] = tested on: murine colorectal cancer MC38/EGFP; assay: burden of metastases in regional lymph nodes, MC38/EGFP fluorescence (1c); format: in vivo, mice; details: for metastases in regional lymph nodes (intensity of fluorescence), combined treatment with 5-FU: 5-FU 75 mg/kg i.p. with PRI-2191 1 μg/kg or PRI-2205 10 μg/kg s.c., day 59; for metastases in regional lymph nodes (fluorescence) versus control mice: analogue only, day 50
# Text: Cancer cells of murine colorectal cancer MC38/EGFP (cells expressing a protein of green fluorescence) were implanted subcutaneously in an amount of 1×10^6 cells/mouse. […] Compounds were given subcutaneously, 3 times a week. […] Then on day 59 of experiment, lymph nodes from mice of remaining were taken for analysis. Using NightOWL II LB 983 apparatus, photographs of isolated lymph nodes were taken in order to visualize cancer cells in sites of metastases.
# Intensity of the measured fluorescence is related to a burden of metastases (the number of cells with fluorescence).
# [10] = calcium level in blood serum of mice treated with 5-FU and vitamin D analogues; format: in vivo, Mice of BALB/c strain; details: BALB/c; 5-FU 50 mg/kg i.p. day 1; PRI-2191 2 or PRI-2205 10 μg/kg/day 3 times a week
# Experimental: Mice of BALB/c strain were treated with 5-FU given in a single administration, intraperitoneally on day 1 at a dose of 50 mg/kg. […] Calcium level was evaluated (Arsezano 3 method, Olympus AU400; Olympus America Inc., Melville, NY, USA) in blood serum of treated and control mice.
# [11] = body mass of mice under combined therapy; format: in vivo; details: combination with 5-FU
# [12] = rats; cited from earlier work
# [13] = MC38/0, analogue 100 nM + 5-fluorouracil 0.1 μg/ml
# [14] = analogue 100 nM + 5-fluorouracil 0.01 μg/ml, cell line of this column unclear (MC38/0 or CaCo-2)
# [15] = 18 day of experiment, KCY 250 mg/kg/day oral, PRI-2191 1, PRI-2205 10 μg/kg/day s.c.
Structure (SMILES),TGI [1] [%],Tumours MEAN ± SD [1] [g],volume of tumours C38 in comparison with control [1],ILS % ([2]; C38) [%],TGI (d20) % ([2]; C38) [%],C38 tumour mass in comparison with control [2],TGI [3] [%],Tumours MEAN ± SD [3] [g],HT-29 tumour mass in comparison with control [3],Type of reaction between vitamin D analogues and 5-fluorouracil [4],Type of reaction between vitamin D analogues and 5-fluorouracil [5],"Type of reaction between vitamin D analogues and 5-fluorouracil [6, 13]","Type of reaction between vitamin D analogues and 5-fluorouracil [6, 14]",Type of reaction between vitamin D analogues and 5-fluorouracil [7],"Tumours MEAN ± SD [8, 15] [g]",tumour C38 mass in comparison with control [8],"volume of tumours C38, combination with 5-FU in comparison with 5-FU [1]","C38 tumour mass, combination with 5-FU in comparison with 5-FU [2]","metastases in regional lymph nodes (intensity of fluorescence), combined treatment with 5-FU [9]",metastases in regional lymph nodes (fluorescence) versus control mice [9],other results
"O=c1[nH]cc(F)c(=O)[nH]1 [5-FU, 5-fluorouracil]",84,0.19 ± 0.19,decreases in statistically significant manner volume of tumours C38 in comparison with control,21,64,decreases in a statistically significant manner C38 tumour mass in comparison with control,47,1.23 ± 0.30,decreases in a statistically significant manner HT-29 tumour in comparison with control,,,,,,,,,,,,
"C=C1/C(=C\C=C2/CCC[C@]3(C)[C@@H]([C@H](C)CCCC(C)(C)O)CC[C@@H]23)C[C@@H](O)C[C@@H]1O [CALCITRIOL, 1,25-dihydroxycholekalciferol]",,,,,,,,,,+++,+++,+++,+++,−,,,,,,,"interaction with 5-fluorouracil ([7]; Caco-2 cell line, 120-hour exposure): antagonism"
"CCCCCOC(=O)Nc1nc(=O)n([C@@H]2O[C@H](C)[C@@H](O)[C@H]2O)cc1F [KCY, capecitabine]",,,,,,,,,,,,,,,0.41 ± 0.33,decreases tumour C38 mass in comparison with control,,,,,TGI ([8]; 18 day of experiment): 47%; TGI ([8]; 29 day of experiment): 35%; Tumours MEAN ± SD ([8]; 29 day of experiment): 1.65 ± 1.39 g
"C=C1/C(=C\C=C2/CCC[C@]3(C)[C@@H]([C@H](C)CC[C@@H](O)C(C)C)CC[C@@H]23)C[C@@H](O)C[C@@H]1O [PRI-2191, 1,24(R)-dihydroxycholekalciferol]",16,0.88 ± 0.49,inhibits 38C tumours growth in the last four measurements,52,44,inhibits C38 tumour growth only in two last measurements,16,2.19 ± 1.51,did not influence tumour mass,+++,+++,+++,+++,+++,0.75 ± 0.32,does not influence tumour mass,decreases in statistically significant manner volume of tumours also in comparison with 5-FU,in a statistically significant manner decreases tumour mass also in comparison with 5-FU,increased anti-metastatic action,did not differ significantly,"HT-29 tumour mass, combination with 5-FU in comparison with 5-FU alone [3]: influences significantly also tumour mass in comparison with 5-FU alone; type of interaction in inhibition of HT-29 tumour growth [3]: synergism; tumour mass, combination with capecitabine in comparison with capecitabine alone [8]: influences significantly tumour mass in comparison with capecitabine alone; type of interaction in inhibition of tumour growth with capecitabine [8]: a synergistic effect is seen mainly in the last days of the experiment; calcium level in blood serum of mice [10]: calcium level increases in statistically significant degree; body mass of mice treated with 5-FU in combination with vitamin D analogue, versus 5-FU alone [11]: increased loss of body mass"
"C=C1/C(=C\C=C2/CCC[C@]3(C)[C@@H]([C@H](C)/C=C/[C@@H](O)C4CC4)CC[C@@H]23)C[C@@H](O)C[C@@H]1O [PRI-2201, (1S,3R,5Z,7E,22E,24S)-24-cyclopropyl-9,10-secochola-5,7,10(19),22-tetraeno-1,3,24-triol]",,,,,,,,,,+++,+++,+++,+++,+++,,,,,,,lesser influence on calcium metabolism than calcitriol [12]: 100-200 fold
"C=C1/C(=C/C=C2\CCC[C@]3(C)[C@@H]([C@H](C)/C=C/[C@@H](O)C4CC4)CC[C@@H]23)C[C@@H](O)C[C@@H]1O [PRI-2205, (1S,3R,5E,7E,22E,24S)-24-cyclopropyl-9,10-secochol-5,7,10(19),22-tetraeno-1,3,24-triol]",29,1.06 ± 0.84,inhibits C38 tumours growth from 18 to 28 day of measurement,2,0,does not influence tumour mass,31,1.88 ± 0.78,did not influence tumour mass,+++,+++,+++,+++,+++,0.81 ± 0.60,does not influence tumour mass,decreases in statistically significant manner volume of tumours also in comparison with 5-FU,in a statistically significant manner decreases tumour mass also in comparison with 5-FU,did not influence the metastatic process,did not differ significantly,"influence on survival time of mice treated with 5-FU ([2]; C38, analogue added to 5-FU, p<0.05): prolongs survival of mice treated with 5-FU; ILS Effect ([2]; C38, combination with 5-FU, survival time): synergistic; HT-29 tumour mass, combination with 5-FU in comparison with 5-FU alone [3]: influences significantly also tumour mass in comparison with 5-FU alone; type of interaction in inhibition of HT-29 tumour growth [3]: synergism; tumour mass, combination with capecitabine in comparison with capecitabine alone [8]: influences significantly tumour mass in comparison with capecitabine alone; type of interaction in inhibition of tumour growth with capecitabine [8]: synergism"
